The source of these data is US20100222309A1, “SKIN PROPERTY-IMPROVING THERAPEUTIC AGENT COMPRISING A MORPHINAN DERIVATIVE OR ANY OF ITS PHARMACOLOGICALLY PERMISSIBLE ACID ADDITION SALTS AS AN ACTIVE INGREDIENT” (TORAY INDUSTRIES, INC., priority 2007, published 2010).

In the test the test system is itch patients treated with hemodialysis. Briefly: Oral administration of compound 1 soft capsules to itch patients treated with hemodialysis; skin properties and itching observed.
The mark [1] stands for this setting: one of the patients, after end of administration.

Consider `CN(C(=O)/C=C/c1ccoc1)[C@@H]1CC[C@@]2(O)[C@H]3Cc4ccc(O)c5c4[C@@]2(CCN3CC2CC2)[C@H]1O5.Cl` [compound 1], for which, under setting [1], the itching result was “began to feel itching again” and the skin moisture result is “began to have dry skin”. Besides, for the setting “patient, two capsules (5.0 μg) oral, after start of administration”, the itching result is recorded as “began to feel less itching”.
